Calls of active or inactive are those of the source. No cut-off for these calls is given here.
How the values were obtained:
[1] = molecular target: T1, Cytochrome P450 2C9 (Homo sapiens, UniProt P11712); experiment: Time dependent inhibition of CYP2C9 (unknown origin); format: ADME
[2] = Protein binding in rabbit plasma assessed as fraction unbound at 0.1 to 300 ug/ml using 14C-labeled ligand by rapid equilibrium dialysis; format: ADME, cell-free, Oryctolagus cuniculus; conditions: at 0.1 to 300 µg/mL, dose 0.1-300 µg/ml
[3] = Cmin in LPS-induced DBA/1 mouse plasma at 0.02 microg/g, po bid preincubated for 3 days followed by LPS stimulation for 30 mins and measured after 72 hrs by flow cytometry; format: ADME, organism-based; conditions: dose 0.02 µg/g, time 3 day, read-out: Cmin
[4] = molecular target: Cytochrome P450 3A4 (Homo sapiens, UniProt P08684); experiment: Time dependent inhibition of CYP3A4 (unknown origin); format: ADME
[5] = In vivo inhibition of hERG in iv dosed dog assessed as change in PR interval; format: toxicity, organism-based, Canis lupus familiaris
[6] = molecular target: T2, C-X-C chemokine receptor type 3 (Homo sapiens, UniProt P49682); experiment: Binding affinity to human CXCR3 expressed in CHO-K1 cell membrane assessed as dissociation constant using tritium-labeled ligand by […] assay; format: cell membranes
T2 sequence (P49682 whole entry): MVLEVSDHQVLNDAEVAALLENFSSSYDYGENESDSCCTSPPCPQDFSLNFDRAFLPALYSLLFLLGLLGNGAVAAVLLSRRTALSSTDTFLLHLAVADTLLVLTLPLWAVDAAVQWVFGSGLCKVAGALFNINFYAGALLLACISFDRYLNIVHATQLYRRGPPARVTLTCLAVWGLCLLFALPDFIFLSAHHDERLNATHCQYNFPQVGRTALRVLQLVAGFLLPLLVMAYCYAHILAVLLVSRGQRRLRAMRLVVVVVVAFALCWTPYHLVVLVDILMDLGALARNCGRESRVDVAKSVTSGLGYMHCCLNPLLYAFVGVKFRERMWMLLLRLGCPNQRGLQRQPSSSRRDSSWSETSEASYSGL

[7] = Protein binding in rat plasma assessed as fraction unbound at 1 uM incubated for 6 hrs by rapid equilibrium dialysis based LC-MS/MS analysis; format: ADME, cell-free
[8] = Metabolic stability in human hepatocyte assessed as M2 metabolite formation at 1 uM and measured upto 15 mins in presence of NADPH regenerating system by LC-MS/MS analysis; format: ADME, cell-based; conditions: hepatocytes, 0.25 h
[9] = Protein binding in mouse plasma assessed as fraction unbound at 20 ug/ml using 14C-labeled ligand by rapid equilibrium dialysis; format: ADME, cell-free; conditions: at 20 µg/mL
[10] = molecular target: T3, C-X-C chemokine receptor type 3 (Homo sapiens) (UniProt P49682); experiment: Binding affinity to human CXCR3 expressed in CHO-K1 cell membrane assessed as […] (Kon) using tritium-labeled ligand by […] assay; format: cell membranes; conditions: filed as antagonist
T3 sequence (whole entry): T2 sequence (P49682 whole entry)

[11] = Protein binding in dog plasma assessed as fraction unbound at 0.1 to 300 ug/ml using 14C-labeled ligand by rapid equilibrium dialysis; format: ADME, cell-free, Canis lupus familiaris; conditions: at 0.1 to 300 µg/mL, dose 0.1-300 µg/ml
[12] = AUC (0 to last) in Cynomolgus monkey at 1.0 mg/kg,iv or 1.25 mg/kg, po; format: ADME, organism-based, Macaca fascicularis; set-up: dose 1 mg/kg, route iv; conditions: in vivo
[13] = molecular target: T1, Cytochrome P450 2C9; experiment: Competitive inhibition of CYP2C9 (unknown origin); format: ADME
[14] = molecular target: Cytochrome P450 2D6 (Homo sapiens, UniProt P10635); experiment: Competitive inhibition of CYP2D6 (unknown origin); format: ADME
[15] = Metabolic stability in human hepatocyte assessed as M3 metabolite formation at 1 uM and measured upto 15 mins in presence of NADPH regenerating system by LC-MS/MS analysis; format: ADME, cell-based; conditions: hepatocytes, 0.25 h
[16] = Metabolic stability in dog hepatocytes assessed as intrinsic clearance per 10^6 cells at 1 uM by LC-MS/MS analysis; format: ADME, cell-based, Canis lupus familiaris, Hepatocyte
[17] = molecular target: C-X-C chemokine receptor type 3 (Canis lupus familiaris, UniProt Q5KSK8); experiment: Antagonist activity at dog CXCR3 expressed in CHO-K1 cells assessed as reduction in CXCL11 induced calcium flux by FLIPR method; format: cell-based
[18] = Total clearance in Wistar rat plasma at 0.5 mg/kg, iv; format: ADME, organism-based
[19] = Metabolic stability in rat liver microsomes assessed as intrinsic clearance at 1 uM and measured upto 15 mins in presence of NADPH regenerating system by LC-MS/MS analysis; format: ADME, Microsome; conditions: read-out: CLH
[20] = Cardiotoxicity in human iPSC-derived cardiomyocytes assessed as slowing of spontaneous beating rate at 4.1 ug/ml; format: toxicity, cell-based; conditions: cardiac muscle cell, dose 4.1 µg/ml
[21] = molecular target: ATP-dependent translocase ABCB1 (Homo sapiens, UniProt P08183); experiment: Inhibition of human P-gp in dog MDCKII-MDR1 cells; format: ADME, cell-based
[22] = molecular target: T4, C-X-C chemokine receptor type 3 (Mus musculus) (UniProt O88410); experiment: In vivo antagonist activity at CXCR3 in LPS-induced DBA/1 mouse model assessed as reduction in mouse CXCL10-mediated chemotaxis in CD8+ T cells at 0.02 microg/g, po bid preincubated for 3 days followed by LPS stimulation for 30 mins and measured after 3 days by flow cytometry; format: functional, organism-based; set-up: scale not given: the % may be the effect or the level left; conditions: T-cell, dose 0.02 µg/g, time 6.0 day
T4 sequence (whole entry): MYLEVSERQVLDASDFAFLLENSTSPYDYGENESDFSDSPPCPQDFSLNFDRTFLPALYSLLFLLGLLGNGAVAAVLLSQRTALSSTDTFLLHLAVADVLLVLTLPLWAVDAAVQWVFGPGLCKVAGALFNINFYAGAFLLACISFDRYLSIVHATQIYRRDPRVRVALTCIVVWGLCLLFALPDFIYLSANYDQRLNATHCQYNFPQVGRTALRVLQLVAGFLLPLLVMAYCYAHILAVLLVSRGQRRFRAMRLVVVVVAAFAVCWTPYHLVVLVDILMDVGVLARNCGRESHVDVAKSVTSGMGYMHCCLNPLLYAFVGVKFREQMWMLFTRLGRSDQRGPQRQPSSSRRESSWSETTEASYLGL

[23] = molecular target: C-C chemokine receptor type 5 (Homo sapiens) (UniProt P51681); experiment: Binding affinity to CCR5 (unknown origin) at 10 uM by radioligand binding assay
[24] = Genotoxicity in Salmonella typhimurium TA98 at 5000 ug; format: toxicity; conditions: salmonella enterica subsp. enterica serovar typhimurium; dose 5000 µg
[25] = molecular target: T2, C-X-C chemokine receptor type 3; experiment: Antagonist activity at human CXCR3 expressed in CHO-K1 cells assessed as reduction in CXCL9 induced calcium flux by FLIPR method; format: cell-based
[26] = test system: NIH3T3; experiment: Phototoxicity in BALB/c mouse 3T3 cells upto 100 ug/ml in presence of irradiation; format: toxicity, cell-based; conditions: dose < 100 µg/ml
[27] = Cmax in Cynomolgus monkey at 1.0 mg/kg,iv or 1.25 mg/kg, po; format: ADME, organism-based, Macaca fascicularis; set-up: dose 1 mg/kg, route iv; conditions: in vivo
[28] = Cmax in Wistar rat at 3 mg/kg,iv or 3 mg/kg, po; format: ADME, organism-based; set-up: dose 3 mg/kg, route iv; conditions: in vivo
[29] = Protein binding in rat plasma assessed as fraction unbound at 20 ug/ml using 14C-labeled ligand by rapid equilibrium dialysis; format: ADME, cell-free; conditions: at 20 µg/mL
[30] = molecular target: T5, C-X-C chemokine receptor type 3 (Mus musculus, UniProt O88410); experiment: Antagonist activity at mouse CXCR3 expressed in CHO-K1 cells assessed as reduction in CXCL10 induced calcium flux by FLIPR method; format: cell-based
T5 sequence (O88410 whole entry): T4 sequence (whole entry)

T1 sequence (P11712 whole entry): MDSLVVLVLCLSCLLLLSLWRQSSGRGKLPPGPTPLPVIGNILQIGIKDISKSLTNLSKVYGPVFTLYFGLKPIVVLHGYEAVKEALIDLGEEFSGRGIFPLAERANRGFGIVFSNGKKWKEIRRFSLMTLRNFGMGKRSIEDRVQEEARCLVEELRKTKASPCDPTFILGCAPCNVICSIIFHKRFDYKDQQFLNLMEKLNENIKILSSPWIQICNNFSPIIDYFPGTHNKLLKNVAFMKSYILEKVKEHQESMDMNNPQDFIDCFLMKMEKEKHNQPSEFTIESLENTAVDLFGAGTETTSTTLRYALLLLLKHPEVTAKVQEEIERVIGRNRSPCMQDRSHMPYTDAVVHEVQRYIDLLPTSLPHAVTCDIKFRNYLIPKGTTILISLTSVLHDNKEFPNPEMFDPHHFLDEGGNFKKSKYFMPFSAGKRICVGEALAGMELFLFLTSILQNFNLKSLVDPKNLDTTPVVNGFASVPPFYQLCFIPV
Sequence of C-X-C chemokine receptor type 3 (Canis lupus familiaris, UniProt Q5KSK8) (Q5KSK8 whole entry): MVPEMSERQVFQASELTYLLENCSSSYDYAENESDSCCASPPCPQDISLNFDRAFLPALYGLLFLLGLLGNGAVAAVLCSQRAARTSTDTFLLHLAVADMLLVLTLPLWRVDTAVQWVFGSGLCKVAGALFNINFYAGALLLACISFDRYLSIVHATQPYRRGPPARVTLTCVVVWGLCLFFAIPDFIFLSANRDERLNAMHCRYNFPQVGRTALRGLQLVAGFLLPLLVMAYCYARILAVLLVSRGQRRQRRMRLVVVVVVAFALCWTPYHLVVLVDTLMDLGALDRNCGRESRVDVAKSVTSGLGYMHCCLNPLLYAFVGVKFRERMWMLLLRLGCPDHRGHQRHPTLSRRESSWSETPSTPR
Sequence of Cytochrome P450 2D6 (P10635 whole entry): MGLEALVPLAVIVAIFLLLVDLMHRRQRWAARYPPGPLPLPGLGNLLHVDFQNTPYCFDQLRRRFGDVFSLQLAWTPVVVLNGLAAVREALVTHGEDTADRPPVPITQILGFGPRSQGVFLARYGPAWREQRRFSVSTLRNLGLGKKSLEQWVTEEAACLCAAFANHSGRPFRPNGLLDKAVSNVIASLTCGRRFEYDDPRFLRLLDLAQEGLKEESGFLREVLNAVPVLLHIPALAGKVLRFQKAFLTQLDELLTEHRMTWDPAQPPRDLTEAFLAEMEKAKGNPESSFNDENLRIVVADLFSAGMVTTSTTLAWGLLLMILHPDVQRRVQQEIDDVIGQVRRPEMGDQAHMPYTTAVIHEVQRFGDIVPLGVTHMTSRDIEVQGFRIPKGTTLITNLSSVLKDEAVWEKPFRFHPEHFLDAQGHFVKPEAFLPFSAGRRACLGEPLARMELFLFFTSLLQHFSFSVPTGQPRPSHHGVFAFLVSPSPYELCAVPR
Sequence of Cytochrome P450 3A4 (P08684 whole entry): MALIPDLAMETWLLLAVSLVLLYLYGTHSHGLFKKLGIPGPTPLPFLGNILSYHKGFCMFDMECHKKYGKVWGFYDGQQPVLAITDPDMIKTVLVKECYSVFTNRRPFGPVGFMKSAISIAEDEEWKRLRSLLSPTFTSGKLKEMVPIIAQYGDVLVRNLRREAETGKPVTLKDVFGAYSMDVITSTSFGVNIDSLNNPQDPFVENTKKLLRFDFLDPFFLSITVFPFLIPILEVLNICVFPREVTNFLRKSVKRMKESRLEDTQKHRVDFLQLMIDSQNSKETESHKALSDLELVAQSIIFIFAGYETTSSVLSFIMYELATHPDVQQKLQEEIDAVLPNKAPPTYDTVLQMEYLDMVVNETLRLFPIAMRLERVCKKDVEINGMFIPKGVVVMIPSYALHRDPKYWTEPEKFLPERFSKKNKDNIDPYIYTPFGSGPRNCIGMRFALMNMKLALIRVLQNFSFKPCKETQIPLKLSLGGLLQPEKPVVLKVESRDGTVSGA
Sequence of C-C chemokine receptor type 5 (Homo sapiens) (P51681 whole entry, looked up): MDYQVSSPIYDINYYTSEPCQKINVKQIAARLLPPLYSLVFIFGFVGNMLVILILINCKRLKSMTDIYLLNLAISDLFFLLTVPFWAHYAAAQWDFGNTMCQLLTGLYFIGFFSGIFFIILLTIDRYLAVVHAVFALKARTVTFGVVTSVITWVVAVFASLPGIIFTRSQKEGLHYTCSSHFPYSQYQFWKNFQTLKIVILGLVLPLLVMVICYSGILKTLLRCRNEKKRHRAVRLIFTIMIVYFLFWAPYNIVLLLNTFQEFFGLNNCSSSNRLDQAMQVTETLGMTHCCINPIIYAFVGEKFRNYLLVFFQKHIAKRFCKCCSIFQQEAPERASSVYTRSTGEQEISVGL
Sequence of ATP-dependent translocase ABCB1 (P08183 whole entry): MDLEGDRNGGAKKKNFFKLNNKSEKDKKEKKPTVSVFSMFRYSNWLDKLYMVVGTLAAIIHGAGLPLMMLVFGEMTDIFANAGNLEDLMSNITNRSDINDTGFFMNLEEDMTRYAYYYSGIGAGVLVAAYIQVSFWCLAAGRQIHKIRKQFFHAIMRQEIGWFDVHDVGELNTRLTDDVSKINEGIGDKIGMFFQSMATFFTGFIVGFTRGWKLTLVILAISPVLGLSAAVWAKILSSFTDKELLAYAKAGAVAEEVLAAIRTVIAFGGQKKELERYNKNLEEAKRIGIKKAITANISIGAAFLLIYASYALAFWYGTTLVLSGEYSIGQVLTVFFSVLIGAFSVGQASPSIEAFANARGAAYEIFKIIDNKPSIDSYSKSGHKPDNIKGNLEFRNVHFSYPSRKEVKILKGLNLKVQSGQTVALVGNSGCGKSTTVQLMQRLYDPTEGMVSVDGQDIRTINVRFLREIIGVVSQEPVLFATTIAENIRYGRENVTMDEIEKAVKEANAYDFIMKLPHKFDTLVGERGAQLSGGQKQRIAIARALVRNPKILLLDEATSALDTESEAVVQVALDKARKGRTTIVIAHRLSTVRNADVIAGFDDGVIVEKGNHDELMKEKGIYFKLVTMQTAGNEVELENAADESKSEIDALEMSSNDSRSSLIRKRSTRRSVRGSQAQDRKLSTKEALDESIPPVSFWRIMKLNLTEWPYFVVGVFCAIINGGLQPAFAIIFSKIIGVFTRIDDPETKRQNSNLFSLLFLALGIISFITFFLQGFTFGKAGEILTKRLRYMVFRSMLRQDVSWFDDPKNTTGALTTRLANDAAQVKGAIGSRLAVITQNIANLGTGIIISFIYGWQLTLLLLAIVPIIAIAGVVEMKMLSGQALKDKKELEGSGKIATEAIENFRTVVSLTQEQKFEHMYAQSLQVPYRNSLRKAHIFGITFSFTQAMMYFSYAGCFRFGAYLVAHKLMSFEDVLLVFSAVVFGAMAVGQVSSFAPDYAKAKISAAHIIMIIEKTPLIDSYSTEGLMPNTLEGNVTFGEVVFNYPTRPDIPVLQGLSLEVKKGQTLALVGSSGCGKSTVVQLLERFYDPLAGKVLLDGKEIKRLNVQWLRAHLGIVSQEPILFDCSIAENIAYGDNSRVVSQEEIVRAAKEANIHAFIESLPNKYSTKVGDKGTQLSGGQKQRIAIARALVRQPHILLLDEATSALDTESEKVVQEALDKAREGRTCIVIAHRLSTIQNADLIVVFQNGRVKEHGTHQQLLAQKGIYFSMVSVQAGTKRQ

IC50 [1]: > 50000 nM | fraction unbound [2]: 0.1 | concentration at 72 h [3]: 99 ng/mL | IC50 [4]: > 50000 nM | Kd [6]: 4.6 nM | fraction unbound at 6 h, 1 µM [7]: 0.09 | Stability [8]: Unstable | fraction unbound at 20 ug/ml [9]: 0.1 | ka [10]: 6.6 10^6/M/s | fraction unbound [11]: 0.48 | AUC(0-t) [12]: 3610 ng·h/mL | IC50 [13]: > 50000 nM | IC50 [14]: > 50000 nM | Stability [15]: Unstable | CLH [16]: < 2 µL/min/mg | IC50 [17]: 4 nM | clearance [18]: 14 mL/min/kg | microsomal CLint at 1 µM [19]: < 10 µL/min/mg | inhibition (INH) [21]: Not Active | Activity [22]: 45% | Activity [23]: inactive | IC50 [25]: 3.3 nM | Cmax [27]: 735 ng/mL | Cmax [28]: 910 ng/mL | fraction unbound at 20 ug/ml [29]: 0.12 | IC50 [30]: 1.5 nM
Structure (SMILES): Cc1ncn(CC(=O)N2CCN(c3sc(C(F)(F)F)nc3-c3cnc(C(F)(F)F)nc3)C[C@H]2CCO)n1
inhibition (INH) [5]: Non-Toxic | Activity [20]: Toxic | Activity [24]: Non-Toxic | Activity [26]: Non-Toxic

From ChEMBL document CHEMBL5247653, “Discovery of Clinical Candidate ACT-777991, a Potent CXCR3 Antagonist for Antigen-Driven and Inflammatory Pathologies” (J Med Chem, 2023)
